Reference: patent publication US11000033B2, “Ketone or oxime compound, and herbicide” (NISSAN CHEMICAL CORPORATION, priority 2014, dated 2021)

How the values were obtained:
Type in all cases: in vivo
Abutilon theophrasti [1] = experiment: Test Example 5: herbicidal effect by foliage application, plastic box (symbol M); conditions: 320 g/ha, 3 weeks after application
In short: (§1)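 Effect is rated 3 weeks after a foliar spray of water-diluted emulsion concentrate at a predetermined herbicide amount. Plants had grown 14 days in a 25° C. to 30° C. greenhouse from seed in sterilized diluvial soil.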

Abutilon theophrasti [2] = experiment: Test Example 4: herbicidal effect by soil treatment (symbol M); conditions: for M: Abutilon theophrasti, herbicidal effect grade: 320 g/ha
Text: (§2) Herbicidal Effect Test by Soil Treatment
(§3) Sterilized diluvial soil was placed in a plastic box having a length of 21 cm, a width of 13 cm, and a depth of 7 cm. Each of the seeds of Digitaria ciliaris, Setaria viridis, Echinochloa crus-galli var. crus-galli, Avena fatua, Alopecurus myosuroides, Lolium multiflorum Lam., Apera spica-venti, Abutilon theophrasti, Amaranthus retroflexus, Chenopodium album, Stellaria media, Galium spurium, Veronica persica, corn, soybean, rice, wheat, beet, and rapeseed was sowed in a spot-like manner and was covered with the soil of a thickness of about 1.5 cm. Subsequently, the emulsion agent of the compound present invention prepared in accordance with Formulation Example 2 was diluted with water so as to be a predetermined herbicide amount and the diluted emulsion agent was uniformly applied to the surface of the soil with a small-size spray. The plastic box was placed in a greenhouse of 25° C. to 30° C. to grow plant. 3 weeks later from the herbicide application, the effect to each plant was investigated in accordance with the criteria of Test Example 1.

transplanted rice plant = experiment: Test Example 1: effect on crop, application before weed generation in submerged conditions (symbol a); conditions: application herbicide amount 320 g/ha
In short: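 Alluvial soil pots flooded to 4 cm water, sown with Echinochloa oryzacola, Scirpus juncoides and Monochoria vaginalis, then transplanted with 2.5 leaf stage rice seedlings; pre-emergence application. Greenhouse 25° C. to 30° C.; scored 0–5 by herbicidal ratio 3 weeks after application.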

Apera spica-venti = experiment: Test Example 4: herbicidal effect by soil treatment (symbol L); conditions: for L: Apera spica-venti, herbicidal effect grade: 320 g/ha
Text: as §2, §3

Digitaria ciliaris = experiment: Test Example 5: herbicidal effect by foliage application, plastic box (symbol F); conditions: 320 g/ha, 3 weeks after application
In short: as §1

corn = experiment: Test Example 5: effect on crop by foliage application, plastic box (symbol c); conditions: 320 g/ha, 3 weeks after application
In short: (§4)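 Greenhouse test at 25° C. to 30° C. Seeds of crops and weeds were spot-sown in boxes of sterilized diluvial soil under roughly 1.5 cm soil cover, then grown for foliage treatment.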

soybean [3] = experiment: Test Example 5: effect on crop by foliage application, plastic box (symbol d); conditions: 320 g/ha, 3 weeks after application
In short: as §4

[4] = tested on: directly sowed rice plant; experiment: Test Example 3: effect on crop by foliage application, Wagner pot (symbol b); conditions: application herbicide amount 320 g/ha; for b (directly sowed rice plant) effect on crop grade: Table 24
In short: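 Plants are raised from seed in flooded paddy conditions: water stands 0.1–0.5 cm over alluvial soil, and the pot is kept in a greenhouse at 25–30 °C. Species sown are barnyardgrass (E. crus-galli var. crus-galli), Leptochloa chinensis, Cyperus difformis and rice.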

[5] = tested on: Echinochloa crus-galli var. crus-galli; experiment: Test Example 4: herbicidal effect by soil treatment (symbol H); conditions: for H: Echinochloa crus-galli var. crus-galli, herbicidal effect grade: 320 g/ha
Text: as §2, §3

[6] = tested on: Echinochloa oryzacola Vasing.; experiment: Test Example 1: herbicidal activity, application before weed generation in submerged conditions (symbol A); conditions: application herbicide amount 320 g/ha
In short: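 Weeds are sown into submerged alluvial soil alongside transplanted 2.5-leaf rice, and the compound, as an emulsion diluted to a set rate, is applied onto the water before emergence. Rating on the 0–5 herbicidal-ratio scale follows 3 weeks of greenhouse growth at 25–30 °C.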

soybean [7] = experiment: Test Example 4: effect on crop by soil treatment (symbol d); conditions: for d: soybean, effect grade on crop: 320 g/ha
Text: as §2
Sterilized diluvial soil was placed in a plastic box having a length of 21 cm, a width of 13 cm, and a depth of 7 cm. Each of the seeds of Digitaria ciliaris, Setaria viridis, Echinochloa crus-galli var. crus-galli, Avena fatua, Alopecurus myosuroides, Lolium multiflorum Lam., Apera spica-venti, Abutilon theophrasti, Amaranthus retroflexus, Chenopodium album, Stellaria media, Galium spurium, Veronica persica, corn, soybean, rice, wheat, beet, and rapeseed was sowed in a spot-like manner and was covered with the soil of a thickness of about 1.5 cm. […] The plastic box was placed in a greenhouse of 25° C. to 30° C. to grow plant.

Avena fatua = experiment: Test Example 5: herbicidal effect by foliage application, plastic box (symbol I); conditions: 320 g/ha, 3 weeks after application
In short: as §1

Veronica persica = experiment: Test Example 5: herbicidal effect by foliage application, plastic box (symbol R); conditions: 320 g/ha, 3 weeks after application
In short: as §1

[8] = application herbicide amount 320 g/ha

Compound	M: Abutilon theophrasti, herbicidal effect grade (Abutilon theophrasti [1])	Effect grade on crop, a: transplanted rice plant (transplanted rice plant)	F: Digitaria ciliaris, herbicidal effect grade (Digitaria ciliaris)	c: corn, effect on crop grade (corn)	d: soybean, effect on crop grade (soybean [3])	effect on crop b (directly sowed rice plant), grade 0-5 [4]	Herbicidal effect grade, A: Echinochloa oryzacola Vasing. [6]	I: Avena fatua, herbicidal effect grade (Avena fatua)	R: Veronica persica, herbicidal effect grade (Veronica persica)	M: Abutilon theophrasti, herbicidal effect (criteria 0-5) (Abutilon theophrasti [1])	M: Abutilon theophrasti, herbicidal effect grade (Abutilon theophrasti [2])	L: Apera spica-venti, herbicidal effect grade (Apera spica-venti)	F: Digitaria ciliaris, herbicidal effect (criteria 0-5) (Digitaria ciliaris)	c: corn, effect on crop (criteria 0-5) (corn)	d: soybean, effect on crop (criteria 0-5) (soybean [3])	H: Echinochloa crus-galli var. crus-galli, herbicidal effect grade [5]	d: soybean, effect grade on crop (soybean [7])	I: Avena fatua, herbicidal effect (criteria 0-5) (Avena fatua)	R: Veronica persica, herbicidal effect (criteria 0-5) (Veronica persica)	Herbicidal effect grade, M: Abutilon theophrasti (Abutilon theophrasti [2]; [8])	further results
C=CCOC1=C(c2c(C)cc(C)cc2C)C(=O)C(CC(C)=NOC)C1 (centres unmarked) [1-007]	0 (Herbicidal ratio of 5% or lower (almost no effect))	0 (Herbicidal ratio of 5% or lower (almost no effect))	0 (Herbicidal ratio of 5% or lower (almost no effect))	0 (Herbicidal ratio of 5% or lower (almost no effect))	0 (Herbicidal ratio of 5% or lower (almost no effect))	0 (Herbicidal ratio of 5% or lower (almost no effect))	0 (Herbicidal ratio of 5% or lower (almost no effect))	3 (Herbicidal ratio of 40% or higher and lower than 70%)	0 (Herbicidal ratio of 5% or lower (almost no effect))	–	–	–	–	–	–	–	–	–	–	–	M (Abutilon theophrasti) herbicidal effect grade (Abutilon theophrasti [2]; [8]): 0 (Herbicidal ratio of 5% or lower (almost no effect)); L (Apera spica-venti) herbicidal effect grade (Apera spica-venti; [8]): 3 (Herbicidal ratio of 40% or higher and lower than 70%); H (Echinochloa crus-galli var. crus-galli) herbicidal effect grade [5, 8]: 0 (Herbicidal ratio of 5% or lower (almost no effect)); d (soybean) effect on crop grade (soybean [7]; [8]): 0 (Herbicidal ratio of 5% or lower (almost no effect))
CC(CC1CC(O)=C(c2c(C)cc(C)cc2C)C1=O)=NOCC#N (centres unmarked) [1-102]	–	5 (Herbicidal ratio of 90% or more (almost completely withered))	–	–	–	5 (Herbicidal ratio of 90% or more (almost completely withered))	5 (Herbicidal ratio of 90% or more (almost completely withered))	–	–	0 (Herbicidal ratio of 5% or lower (almost no effect))	0 (Herbicidal ratio of 5% or lower (almost no effect))	5 (Herbicidal ratio of 90% or more (almost completely withered))	5 (Herbicidal ratio of 90% or more (almost completely withered))	5 (Herbicidal ratio of 90% or more (almost completely withered))	0 (Herbicidal ratio of 5% or lower (almost no effect))	5 (Herbicidal ratio of 90% or more (almost completely withered))	0 (Herbicidal ratio of 5% or lower (almost no effect))	5 (Herbicidal ratio of 90% or more (almost completely withered))	2 (Herbicidal ratio of 20% or higher and lower than 40%)	–	–
CCCCCCCCS(=O)(=O)OC1=C(c2c(C)cc(C)cc2C)C(=O)C(CC(C)=NOC)C1 (centres unmarked) [1-107]	–	3 (Herbicidal ratio of 40% or higher and lower than 70%)	–	–	–	5 (Herbicidal ratio of 90% or more (almost completely withered))	5 (Herbicidal ratio of 90% or more (almost completely withered))	–	–	1 (Herbicidal ratio of 5% or higher and lower than 20%)	0 (Herbicidal ratio of 5% or lower (almost no effect))	5 (Herbicidal ratio of 90% or more (almost completely withered))	4 (Herbicidal ratio of 70% or higher and lower than 90%)	2 (Herbicidal ratio of 20% or higher and lower than 40%)	3 (Herbicidal ratio of 40% or higher and lower than 70%)	5 (Herbicidal ratio of 90% or more (almost completely withered))	0 (Herbicidal ratio of 5% or lower (almost no effect))	5 (Herbicidal ratio of 90% or more (almost completely withered))	0 (Herbicidal ratio of 5% or lower (almost no effect))	–	–
CC#Cc1cc(C)c(C2=C(OC(=O)COc3ccccc3)CC(CC(C)=NOCC(F)(F)F)C2=O)c(C)c1 (centres unmarked) [9-013]	4 (Herbicidal ratio of 70% or higher and lower than 90%)	–	5 (Herbicidal ratio of 90% or more (almost completely withered))	5 (Herbicidal ratio of 90% or more (almost completely withered))	0 (Herbicidal ratio of 5% or lower (almost no effect))	–	–	5 (Herbicidal ratio of 90% or more (almost completely withered))	4 (Herbicidal ratio of 70% or higher and lower than 90%)	–	–	–	–	–	–	–	–	–	–	3 (Herbicidal ratio of 40% or higher and lower than 70%)	a (transplanted rice plant) effect on crop grade (transplanted rice plant): 5 (Herbicidal ratio of 90% or more (almost completely withered)); Herbicidal effect grade, L: Apera spica-venti (Apera spica-venti; [8]): 5 (Herbicidal ratio of 90% or more (almost completely withered)); b (directly sowed rice plant) effect on crop grade [4]: 5 (Herbicidal ratio of 90% or more (almost completely withered)); Herbicidal effect grade, H: Echinochloa crus-galli var. crus-galli [5, 8]: 5 (Herbicidal ratio of 90% or more (almost completely withered)); A (Echinochloa oryzacola Vasing.) herbicidal effect grade [6]: 5 (Herbicidal ratio of 90% or more (almost completely withered)); Effect on crop grade, d: soybean (soybean [7]; [8]): 0 (Herbicidal ratio of 5% or lower (almost no effect))
COCCON=C(C)CC1CC(O)=C(c2c(C)cc(-n3cc(Cl)cn3)cc2C)C1=O (centres unmarked) [9-016]	0 (Herbicidal ratio of 5% or lower (almost no effect))	–	5 (Herbicidal ratio of 90% or more (almost completely withered))	5 (Herbicidal ratio of 90% or more (almost completely withered))	3 (Herbicidal ratio of 40% or higher and lower than 70%)	–	–	5 (Herbicidal ratio of 90% or more (almost completely withered))	1 (Herbicidal ratio of 5% or higher and lower than 20%)	–	–	–	–	–	–	–	–	–	–	0 (Herbicidal ratio of 5% or lower (almost no effect))	a (transplanted rice plant) effect on crop grade (transplanted rice plant): 5 (Herbicidal ratio of 90% or more (almost completely withered)); Herbicidal effect grade, L: Apera spica-venti (Apera spica-venti; [8]): 1 (Herbicidal ratio of 5% or higher and lower than 20%); b (directly sowed rice plant) effect on crop grade [4]: 5 (Herbicidal ratio of 90% or more (almost completely withered)); Herbicidal effect grade, H: Echinochloa crus-galli var. crus-galli [5, 8]: 5 (Herbicidal ratio of 90% or more (almost completely withered)); A (Echinochloa oryzacola Vasing.) herbicidal effect grade [6]: 5 (Herbicidal ratio of 90% or more (almost completely withered)); Effect on crop grade, d: soybean (soybean [7]; [8]): 0 (Herbicidal ratio of 5% or lower (almost no effect))
